Results as given in patent US7078499B2, “Nucleotide analogues comprising a reporter moiety and a polymerase enzyme blocking moiety” (GE Healthcare UK Limited, priority 2000, dated 2006).

How the values were obtained:
Format in all cases: biochemical
Vent™ DNA polymerase = experiment: Thermostable DNA polymerase primer extension, Vent; parameters: key to result of incorporation (termination / further chain extension): T: Incorporation results in termination; E: Incorporation permits further chain extension; T/E: Predominant product is primer extended by one base, but evidence of some further extension also observed; conditions: DNA template, 45° C. for 20–40 minutes; for primer extended by at least one base within assay time (grade): TTP replaced entirely by test compound
Procedure: (§1) DNA polymerase assays were performed using Sequence 1 as primer and Sequence 2 as template. • Sequence 1 5′[Cy3]TAACTCATTAACAGGATC 3′ • Sequence 2 5′AT TCGCGGTATTCTGGTATGAAGCTTTTAGATCCTGTTAATGAGTTA GTA3′
(§2) The template (Sequence 2) was designed such that the base (underlined) immediately adjacent to the 3′ end of the hybridised primer is complementary to the nucleotide test compound. Nucleotide test compounds were compounds (6) (4′-C-(glycylaminomethyl)thymidine triphosphate), (8) (4′-C-(N-trifluoroacetyaminomethyl)thymidine triphosphate) and (9) (4′-C-(aminomethyl)thymidine triphosphate) as described above.
(§3) Primer extension reactions were performed using the above primers in the presence of 40 to 80 μM of nucleotide triphosphates. Positive control reactions contained all four native nucleotide triphosphates. For the other reactions the TTP was replaced with either a 2:1 ratio of […] for the terminator control, or entirely by the test compound The enzymes were used at a final concentration of 0.175 units/μl and a magnesium ion concentration of 2.5 mM in buffers supplied by the manufacturer. The primer and template concentrations were 0.5 pmol/μl and 2 pmol/μl respectively.
(§4) Extension reactions with thermophilic enzymes were performed by initially denaturing the fully assembled reactions at 70° C. for 5 min. followed by 45° C. for 20–40 minutes. The following enzymes were used: Taq DNA polymerase (Taq); Thermosequenase (TS); Thermosequenase II (TSII); Thermosequenase E (TSE), Tfl DNA polymerase (Tfl); Tth DNA polymerase (Tth), deltaTts DNA polymerase (deltaTts), deltaTts D DNA polymerase (dettaTTSD) (all from APBiotech); Pfu DNA polymerase (Pfu) (Stratagene Ltd); Vent™ DNA polymerase (Vent) (New England Biolabs).
(§5) The reactions were stopped by adding a 0.5 volume aliquot of 80% formamide containing 0.1% (w/v) bromophenol blue and 0.1% (w/v) cresol blue. The reaction products were separated by denaturing gel electrophoresis at a constant power of 45 W on 16% polyacrylamide gels containing 50% urea.
(§6) Gels were scanned for Cy3 fluorescence on a Molecular Dynamics Fluorimager and the data analysed using Molecular Dynamics ImageQuant 5 software.
(§7) The incorporation of a test nucleotide triphosphate results in the appearance on a polyacrylamide gel of a single band corresponding to a single base extension product. If, however, the enzyme adds additional bases then further bands would be observed that corresponded to either the full-length product or positions of other complementary bases in the template.

T7 DNA polymerase = target: T1, T7 DNA polymerase (Escherichia phage T7, UniProt P00581); experiment: Mesophilic DNA polymerase primer extension, T7; parameters: key to result of incorporation (termination / further chain extension): T: Incorporation results in termination; E: Incorporation permits further chain extension; T/E: Predominant product is primer extended by one base, but evidence of some further extension also observed; conditions: DNA template, 37° C. for 20–40 minutes; for primer extended by at least one base within assay time (grade): TTP replaced entirely by test compound
T1 construct: purchased AP Biotech
T1 sequence (P0AA25 2-109): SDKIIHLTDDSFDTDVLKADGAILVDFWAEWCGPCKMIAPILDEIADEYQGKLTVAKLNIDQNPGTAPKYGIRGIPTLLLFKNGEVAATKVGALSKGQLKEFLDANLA
T1 sequence (P00581 whole entry): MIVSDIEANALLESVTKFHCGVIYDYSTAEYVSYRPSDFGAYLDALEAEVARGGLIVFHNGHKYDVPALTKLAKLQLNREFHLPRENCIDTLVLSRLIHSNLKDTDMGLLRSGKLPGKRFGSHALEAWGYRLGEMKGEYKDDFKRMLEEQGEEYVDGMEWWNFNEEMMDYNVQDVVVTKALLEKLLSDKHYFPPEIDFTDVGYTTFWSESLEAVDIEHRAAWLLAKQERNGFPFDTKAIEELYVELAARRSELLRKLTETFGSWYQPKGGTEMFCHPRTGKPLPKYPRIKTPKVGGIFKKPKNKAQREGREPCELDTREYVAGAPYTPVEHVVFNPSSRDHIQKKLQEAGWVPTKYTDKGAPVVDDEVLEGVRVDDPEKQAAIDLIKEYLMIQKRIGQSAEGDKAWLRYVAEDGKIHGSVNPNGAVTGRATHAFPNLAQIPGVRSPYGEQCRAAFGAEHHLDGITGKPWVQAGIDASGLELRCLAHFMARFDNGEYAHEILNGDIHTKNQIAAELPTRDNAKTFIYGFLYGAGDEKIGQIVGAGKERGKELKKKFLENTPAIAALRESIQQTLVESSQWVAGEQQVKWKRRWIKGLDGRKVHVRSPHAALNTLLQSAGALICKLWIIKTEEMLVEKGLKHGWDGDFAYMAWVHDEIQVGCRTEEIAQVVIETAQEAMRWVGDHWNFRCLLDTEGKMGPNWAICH
Procedure: as §1, §2, §3
(§8) Extension reactions preformed with mesophilic polymerases were carried out by mixing all the components of the reaction except the enzyme and heating to 70° C. for 5 min. After the reactions had cooled to room temperature 0.175 units of the enzyme were added and the reactions heated to 37° C. for 20–40 minutes. The following enzymes were used: T7 DNA polymerase (T7); Sequenase 2™ (Seq); Klenow fragment of DNA polymerase 1 (Klen); phi-29 DNA polymerase (Phi-29); T4 DNA polymerase (T4) (all from AP Biotech) and Bst DNA polymerase (Bst) (Cambio Ltd).
as §5, §6, §7

Thermosequenase [1] = experiment: Thermostable DNA polymerase primer extension, TS; parameters: key to result of incorporation (termination / further chain extension): T: Incorporation results in termination; E: Incorporation permits further chain extension; T/E: Predominant product is primer extended by one base, but evidence of some further extension also observed; conditions: DNA template, 45° C. for 20–40 minutes; for primer extended by at least one base within assay time (grade): TTP replaced entirely by test compound
Procedure: as §1, §2, §3, §4, §5, §6, §7

Taq DNA polymerase = target: T2, Taq DNA polymerase (Thermus aquaticus, UniProt P19821); experiment: Thermostable DNA polymerase primer extension, Taq; parameters: key to result of incorporation (termination / further chain extension): T: Incorporation results in termination; E: Incorporation permits further chain extension; T/E: Predominant product is primer extended by one base, but evidence of some further extension also observed; conditions: DNA template, 45° C. for 20–40 minutes; for primer extended by at least one base within assay time (grade): TTP replaced entirely by test compound
T2 construct: purchased APBiotech
T2 sequence (P19821 whole entry): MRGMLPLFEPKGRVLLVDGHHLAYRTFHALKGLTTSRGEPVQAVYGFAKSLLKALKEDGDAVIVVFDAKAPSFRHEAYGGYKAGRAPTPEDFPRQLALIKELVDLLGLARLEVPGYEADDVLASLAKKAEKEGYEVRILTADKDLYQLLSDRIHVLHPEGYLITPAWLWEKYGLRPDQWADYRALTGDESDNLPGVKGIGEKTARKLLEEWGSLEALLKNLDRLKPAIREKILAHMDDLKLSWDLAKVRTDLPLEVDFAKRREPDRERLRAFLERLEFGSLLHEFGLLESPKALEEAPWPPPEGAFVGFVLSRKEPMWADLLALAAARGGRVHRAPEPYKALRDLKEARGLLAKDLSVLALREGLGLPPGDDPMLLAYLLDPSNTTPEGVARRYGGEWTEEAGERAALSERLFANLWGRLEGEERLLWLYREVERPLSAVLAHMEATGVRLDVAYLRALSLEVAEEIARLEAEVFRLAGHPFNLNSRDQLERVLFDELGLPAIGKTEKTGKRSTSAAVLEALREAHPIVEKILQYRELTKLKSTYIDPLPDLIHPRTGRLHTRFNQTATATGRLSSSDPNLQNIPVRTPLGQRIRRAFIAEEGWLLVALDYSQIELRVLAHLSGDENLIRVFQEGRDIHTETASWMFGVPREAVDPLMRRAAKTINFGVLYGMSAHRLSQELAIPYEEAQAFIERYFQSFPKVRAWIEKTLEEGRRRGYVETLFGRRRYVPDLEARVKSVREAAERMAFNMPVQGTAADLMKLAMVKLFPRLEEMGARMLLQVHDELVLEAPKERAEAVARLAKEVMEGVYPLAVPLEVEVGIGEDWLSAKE
Procedure: as §1, §2, §3, §4, §5, §6, §7

MuLV RT = target: T3, MuLV RT (Moloney murine leukemia virus, UniProt P03355); experiment: Mesophilic reverse transcriptase reaction, MuLV RT; parameters: key to result of incorporation (termination / further chain extension): T: Incorporation results in termination; E: Incorporation permits further chain extension; T/E: Predominant product is primer extended by one base, but evidence of some further extension also observed; conditions: RNA template, final enzyme concentration of 4 units/μl
T3 construct: MuLv Reverse transcriptase or HIV reverse transcriptase; purchased APBiotech
Procedure: as §1, §2, §3, §8
(§9) Reverse transcriptase reactions were performed essentially as described above for thermophilic and mesophilic enzymes. The template for these reactions was the RNA equivalent of sequence 2. All the thermophilic enzymes were assayed in Tth reaction buffer (Cambio Ltd, Cambridge UK) containing 2.5 mM Manganese ions. The following enzymes were used: Thermosequenase (TS1); Thermosequenase II (TSII); delta Tts DNA polymerase (deltaTts); delta Tts D DNA polymerase (deltaTtsD) (all from APBiotech); Retrotherm reverse transcriptase (Retroth) (Cambio Ltd); Tth DNA polymerase (Tth) (Cambio Ltd.).
Mesophilic reverse transcriptases (AMV RT; MuLV RT; SAV RT and HIV RT all from APBiotech) were assayed in their respective buffers with a final enzyme concentration of 4 units/μl.
as §5, §6, §7

Thermosequenase [2] = experiment: Thermostable polymerase under reverse transcription conditions, TS I; parameters: key to result of incorporation (termination / further chain extension): T: Incorporation results in termination; E: Incorporation permits further chain extension; T/E: Predominant product is primer extended by one base, but evidence of some further extension also observed; conditions: RNA template, 2.5 mM Manganese ions; for primer extended by at least one base within assay time (grade): Tth reaction buffer
Procedure: as §1, §2, §3, §4, §9, §5, §6, §7

[3] = system: delta Tts D DNA polymerase; experiment: Thermostable polymerase under reverse transcription conditions, delta TtsD; parameters: key to result of incorporation (termination / further chain extension): T: Incorporation results in termination; E: Incorporation permits further chain extension; T/E: Predominant product is primer extended by one base, but evidence of some further extension also observed; key to primer extended by at least one base within assay time (grade): −: No extension within assay time; +/−: up to 25% of primer extended by at least one base within assay time; +: up to 50% of primer extended by at least one base within assay time; ++: up to 75% of primer extended by at least one base within assay time; +++: essentially all primer extended by at least one base within assay time; conditions: RNA template, 2.5 mM Manganese ions; for primer extended by at least one base within assay time (grade): Tth reaction buffer
Procedure: as §1, §2, §3, §4, §9, §5, §6, §7

Compound	result of incorporation (termination / further chain extension) (Vent™ DNA polymerase)	primer extended by at least one base within assay time (grade) (Vent™ DNA polymerase)	result of incorporation (termination / further chain extension) (T7 DNA polymerase)	primer extended by at least one base within assay time (grade) (T7 DNA polymerase)	result of incorporation (termination / further chain extension) (Thermosequenase [1])	primer extended by at least one base within assay time (grade) (Thermosequenase [1])	result of incorporation (termination / further chain extension) (Taq DNA polymerase)	primer extended by at least one base within assay time (grade) (Taq DNA polymerase)	primer extended by at least one base within assay time (grade) (MuLV RT)	result of incorporation (termination / further chain extension) (MuLV RT)	result of incorporation (termination / further chain extension) (Thermosequenase [2])	primer extended by at least one base within assay time (grade) (Thermosequenase [2])	result of incorporation (termination / further chain extension) [3]	primer extended by at least one base within assay time (grade) [3]
4′-C-(Aminomethyl)thymidine triphosphate [compound (9)]	T	+/− (up to 25% of primer extended by at least one base within assay time)	T/E	+/− (up to 25% of primer extended by at least one base within assay time)	T	+ (up to 50% of primer extended by at least one base within assay time)	T	+/− (up to 25% of primer extended by at least one base within assay time)	++ (up to 75% of primer extended by at least one base within assay time)	E	T/E	+ (up to 50% of primer extended by at least one base within assay time)	E	+++
Cc1cn([C@H]2C[C@H](O)[C@@](CNC(=O)C(F)(F)F)(COP(=O)(O)OP(=O)(O)OP(=O)(O)O)O2)c(=O)[nH]c1=O [compound (8), 4′-C-(N-trifluoroacetylaminomethyl)thymidine triphosphate]	T	+/− (up to 25% of primer extended by at least one base within assay time)	T/E	+/− (up to 25% of primer extended by at least one base within assay time)	T	+ (up to 50% of primer extended by at least one base within assay time)	T	+/− (up to 25% of primer extended by at least one base within assay time)	++ (up to 75% of primer extended by at least one base within assay time)	E	T/E	+ (up to 50% of primer extended by at least one base within assay time)	E	+++
4′-C-(Glycylaminomethyl)thymidine triphosphate [compound (6)]	T	+/− (up to 25% of primer extended by at least one base within assay time)	T/E	+/− (up to 25% of primer extended by at least one base within assay time)	T	+ (up to 50% of primer extended by at least one base within assay time)	T	+/− (up to 25% of primer extended by at least one base within assay time)	++ (up to 75% of primer extended by at least one base within assay time)	E	T/E	+ (up to 50% of primer extended by at least one base within assay time)	E	+++
